Data reported in patent publication US7595345B2, “Vitamin D receptor modulators” (Eli Lilly and Company, priority 2003, dated 2009).

Columns and labels:
Type in all cases: cell-based
VDR (pGal4-VDR-LBD) = target: T1, VDR (pGal4-VDR-LBD) (Homo sapiens, UniProt P11473); assay: VDR CTF (Caco-2 cell co-transfection assay); details: Caco-2 cells, Gal4-responsive reporter pFRLuc; surrogate for calcemic activity
T1 construct: the receptor expression vector pGal4-VDR-LBD (10 ng); expressed in transfected cells; host or cells: Caco-2 cells
T1 sequence (P11473 127-423 limits assumed): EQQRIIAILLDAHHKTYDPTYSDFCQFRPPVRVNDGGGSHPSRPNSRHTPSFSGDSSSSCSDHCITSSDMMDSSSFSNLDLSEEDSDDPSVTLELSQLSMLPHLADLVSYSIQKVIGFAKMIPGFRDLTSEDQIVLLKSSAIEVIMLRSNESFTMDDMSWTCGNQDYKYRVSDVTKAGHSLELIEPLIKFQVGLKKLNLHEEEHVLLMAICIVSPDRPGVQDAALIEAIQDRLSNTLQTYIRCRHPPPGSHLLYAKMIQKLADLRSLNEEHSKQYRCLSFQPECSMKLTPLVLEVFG
Procedure: 2. The Caco-2 Cell Co-Transfection Assay:
The Caco-2 cell assay is an indicator for the undesirable condition of hypercalcemia. This co-transfection assay is a surrogate assay for in vivo calcemic activity of VDR ligands. […] Preferred assay results are greater than 1000 nM.
(2) Materials and Method for the Caco-2 Cell Assay:
Caco-2 cells, grown in phenol red free, DMEM (Invitrogen, Carlsbad, Calif.) containing 10% charcoal-stripped FCS (Hyclone, Logan, Utah), were transfected with Fugene 6 reagent (Roche Diagnostics, Indianapolis, Ind.). Cells (5000/well) were plated 18 h before transfection in a 96 well plate. The Cells were transfected with Gal4-responsive reporter pFRLuc (150 ng, Stratagene, La Jolla Calif.) and the receptor expression vector pGal4-VDR-LBD (10 ng), along with Fugene 6 reagent (0.2 μl/well). The DNA-Fugene complex was formed by incubating the mixture for 30 min at room temperature. The cells were transfected in triplicate for 5 h, and treated with various concentrations of VDR ligands (form 0.01 nM to 10,000 nM concentration range) 18 h post-transfection. The luciferase activity was quantified using Steady-Glo reagent kit (Promega, Madison, Wis.) as per manufacturer's specifications.

[1] = tested on: IL-10 production in PBMCs; assay: Human IL-10 induction assay; details: PBMC; TPA/PHA treated human PBMCs, IL-10 in supernatant by immunoassay
Description: 6. The IL-10 Induction Assay
This is an in vitro efficacy assay for psoriasis, abscess and adhesion. Psoriasis involves both keratinocytes and immune cells. IL-10 is a unique cytokine because it is anti-inflammatory and immunosuppressive. This assay tells us whether a VDRM is able to function as an agonist in PBMCs (primary blood mononuclear cells) or not. A lower EC50 value is desirable in this assay since a compound with a lower EC50 value will be a better agonist in PBMCs. […] 7. Other Compound Assay Standards An alternative measure of the efficacy of compounds of the invention for treatment of osteoporosis is a numerical ratio calculated as follows: • Dose Threshold needed to induce hypercalcemia • divided by • Dose Threshold needed for bone efficacy An alternative measure of the efficacy of compounds of the invention for treatment of psoriasis is a numerical ratio calculated as follows: • Dose Threshold needed to induce hypercalcemia • divided by • Dose Threshold needed to induce keratinocyte proliferation For the above ratios, Dose Thresholds are determined from dose response curve data. 8. The CaT1 (Calcium Transport Protein 1) Assay The CaT1 Assay is an indicator for the undesirable condition of hypercalcemia. The higher the EC50 values for a compound the less calcemic it will be in vivo. […] Preferred assay results are greater than 1000 nM. Details of the Assay Methods: (1) Materials and Method for RXR-VDR Heterodimerization Assay: Transfection Method:
(6) Materials and Method for Human IL-10 Induction Assay:
Isolation of peripheral blood mononuclear cells (PBMCs): • A. Collect 50 ml of human blood and dilute with media, RPMI-1640. • B. Prepare sterile tubes with ficol. • C. Add diluted blood to tubes. • D. Centrifuge. • E. Discard the top layer and collect the cells from middle layer. • F. Divide all cells into four tubes and add media. • G. Centrifuge. • H. Aspirate off media and resuspend. • I. Collect all cells • J. Centrifuge. at 1200 rpm for 10 minutes. • K. Resuspend in RPMI-1640 with 2% FBS and count cells
Stimulation of PBMC: • L. Prepare TPA in DMSO. • M. Dissolve PHA in water. • N. Plate TPA/PHA treated PBMCs in well plates. • O. Incubate.
Treatment: • P. Prepare all compound dilutions in plain RPMI-1640 media. • Q. Add diluted compound. • R. Incubate.
Sample Collection and Assay: • S. Remove all the cells by centrifugation and assay the supernatant for IL-10 by immunoassay. • 1) T. Perform IL-10 assay using anti-human IL-10 antibody coated beads, as described by the manufacturer (Linco Research Inc., St. Charles, Mo.).

KERtr cells = assay: Keratinocyte proliferation assay; details: Homo sapiens, 72 hr, BrdU incorporation, read-out: Kera. Prolif. IC50
Procedure: 5. The Keratinocyte Proliferation Assay
This Assay is indicative for the treatment of psoriasis.
(5) The Keratinocyte Proliferation Assay:
KERtr cells (Human skin keratinocyte transformed with a retrovirus vector, obtained from ATCC) were plated in 96-well flat-bottomed plates (3000 cells/well) in 100 µl keratinocyte serum free medium supplemented with bovine pituitary extract in the absence of EGF (Life Technologies, Rockville, Md.) and incubated at 37° C. for two days. The cells were treated with various concentrations of VDR ligands (ten-fold serial dilution from 10,000 nM to 0.1 nM in triplicate), dissolved in 100 µl keratinocyte serum free medium supplemented with bovine pituitary extract in the absence of EGF and incubated at 37° C. for 72 hr. BrdU (5-bromo-2′-deoxyuridine) incorporation was analyzed as a measure of DNA replication (Cell proliferation ELISA kit, Roche Diagnostics, Indianapolis, Ind.) and absorbance was measured at 405 nm. Potency values (IC50) values were determined as the concentration (nM) of compound that elicited a half-maximal response.

Compound | EC50 (VDR (pGal4-VDR-LBD)) [nM] | IC50 [1] [nM] | IC50 (KERtr cells) [nM]
CCC(CC)(c1ccc(OCC(O)(C(C)C)C(C)C)c(C)c1)c1ccc(C(=O)NCC(=O)O)c(C)c1 [Ex. 4, (4-{1-Ethyl-1-[4-(2-hydroxy-2-isopropyl-3-methyl-butoxy)-3-methyl-phenyl]-propyl}-2-methyl-benzoylamino)-acetic acid] | 974 | 477 | –
CCC(O)(CC)COc1ccc(C(CC)(CC)c2ccc(C(=O)NCC(=O)O)c(C)c2)cc1C [Ex. 3, (4-{1-ethyl-1-[4-(2-ethyl-2-hydroxy-butoxy)-3-methyl-phenyl]-propyl}-2-methyl-benzoylamino)-acetic acid] | 819 | 718 | 121
